These results are taken from patent publication US12440479B2, “Prevention or treatment of chronic organ injury” (GEORG-AUGUST-UNIVERSITAET GOETTINGEN, STIFTUNG …, priority 2018, dated 2025).

Each structure is given as a SMILES string.

Experiment [1] deals with ARNT, ALK3, pSmad1/5/8. The experiment is described as follows: Kidney allograft biopsies of transplant recipients (immunolabelling, qRT-PCR). The experiment is classed as in vivo, human. Conditions: FK506-based immunosuppressive regimen as compared to CsA. The procedure: The use of parts of human specimens for research purposes as approved by the Ethics Committee of the University Medicine Göttingen, clinical data are presented in Table 6.
Paraffin-embedded specimens were deparaffinized in xylene and rehydrated in ethanol containing distilled water. Tissue sections were stained using polyclonal antibodies against ALK3 (sc-20736, Santa Cruz Biotechnology, Dallas, USA) and ARNT (3718S, Cell Signaling, Danvers, USA), peroxidase labeling was performed using Vectastain Universal Elite ABC Kit (Vector Laboratories, Burlingame, USA) according to the manufacturer's protocol. AEC Substrate-Chromogen (Dako, Glostrup, Denmark) was applied for peroxidase visualization according to the manufacturer's protocol. Nuclear counterstain was performed by using Mayer's Hematoxylin Solution (Sigma, St. Louis, USA). […]
For SYBR-based real-time PCR, cDNA synthesis was performed by using DNase I digestion (Invitrogen, Carlsbad, USA) and SuperScript II Reverse Transcriptase (Invitrogen, Carlsbad, USA) according to the manufacturer's protocol. […] The relative expression levels were calculated using the equation 2^−ddCt.

In experiment [2] the test system is ARNT dimers. The experiment is described as follows: Native gel electrophoresis of endogenous ARNT in TECs. The format is cell-based, mouse. To be noted: TECs upon exposure to FK506. An excerpt:
Tissue and cells were homogenized in NP40 lysis buffer (Life technologies, Carlsbad, USA) supplemented with protease inhibitor cocktail (Roche, Basel, Switzerland). After sonication, protein samples were resolved by a 4-12% Bis-Tris polyacrylamide gel electrophoresis system (Novex, Carlsbad, USA) and transferred onto a nitrocellulose membrane (GE Healthcare, Freiburg, Deutschland), followed by a blocking step with 5% dry milk or 5% bovine serum albumin (BSA) in TBS-T (TBS pH 7.2, 0.1% Tween-20) to prevent unspecific bindings. After incubation with respective primary antibodies against ALK3 (ABD51, Merck Millipore, Billerica, USA) and ALK6 (ABD50, Merck Millipore, Billerica, USA), pSmad1/5/8 (13820, Cell Signaling, Danvers, USA), Arnt (3718, Cell Signaling, Danvers, USA), Fkbp12 (ab2918, Abcam Biochemicals, Cambridge, UK), NFATc1 (sc-7294, Santa Cruz Biotechnology, Dallas, USA), NFATc2 (sc-7295, Santa Cruz Biotechnology, Dallas, USA), β-actin (A5316, Sigma, St. Louis, USA) and Gapdh (5G4, HyTest, Turku, Finland), secondary HRP-conjugated antibodies were used (Dako, Glostrup, Denmark). Luminescence was detected by using chemiluminescent substrate (Cell Signaling, Danvers, USA) on a ChemiDoc XRS system (Bio-Rad, Hercules, USA). Native protein samples were prepared with Native PAGE Sample Prep kit (Novex, Carlsbad, USA) according to the manufacturer's instruction. […]

As for `C=CC[C@@H]1/C=C(\C)C[C@H](C)C[C@H](OC)[C@H]2O[C@@](O)(C(=O)C(=O)N3CCCC[C@H]3C(=O)O[C@H](/C(C)=C/[C@@H]3CC[C@@H](O)[C@H](OC)C3)[C@H](C)[C@@H](O)CC1=O)[C@H](C)C[C@@H]2OC` [FK506, tacrolimus], in experiment [1], the “immunolabelling of ARNT, ALK3 and pSmad1/5/8” value is “significantly increased”; the “intrarenal ARNT and ALK3 mRNA expression levels” value was “Transcriptional induction”. In experiment [2], the “formation of ARNT dimers” value was “further enhanced”.
